Data as given in ChEMBL document CHEMBL1151687, “Search for alpha-helical propensity in the receptor-bound conformation of glucagon-like peptide-1” (Bioorg Med Chem, 2008).
Positions of bridges follow the written chain, without caps; N, C: chain ends. Residues, ends and D or L forms follow the SMILES beside them.

Legend:
[1] = target: T1, Glucagon-like peptide 1 receptor (Homo sapiens, UniProt P43220); assay: Displacement of [125I]exendin(9-39) from human GLP1R expressed in HEK293 cells; type: cell-based
[2] = target: T1, Glucagon-like peptide 1 receptor; assay: Activation of human GLP1R expressed in HEK293 cells assessed as effect on cAMP responsive element promoter driven luciferase expression; type: functional, cell-based

T1 sequence (P43220 whole entry): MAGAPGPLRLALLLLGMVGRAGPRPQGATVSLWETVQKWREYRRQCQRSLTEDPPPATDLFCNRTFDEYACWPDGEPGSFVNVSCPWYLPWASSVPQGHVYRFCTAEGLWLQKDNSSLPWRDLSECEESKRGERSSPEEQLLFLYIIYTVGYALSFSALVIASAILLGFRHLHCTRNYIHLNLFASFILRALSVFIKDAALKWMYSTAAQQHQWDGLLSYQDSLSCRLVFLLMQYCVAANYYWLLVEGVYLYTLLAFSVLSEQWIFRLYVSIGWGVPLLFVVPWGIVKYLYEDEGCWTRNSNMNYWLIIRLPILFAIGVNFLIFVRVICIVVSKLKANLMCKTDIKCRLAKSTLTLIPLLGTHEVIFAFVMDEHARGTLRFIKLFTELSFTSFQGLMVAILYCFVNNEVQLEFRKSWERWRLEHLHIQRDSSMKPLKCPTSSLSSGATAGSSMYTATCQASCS

IC50 [1] | EC50 [2] | IC50 ([1]; hek293) | EC50 ([2]; hek293) | SMILES
440 nM | 24 nM |  |  | CC[C@H](C)[C@H](NC(=O)[C@H](CCC(=O)O)NC(=O)[C@H](CCCCN)NC(=O)[C@H](C)NC(=O)[C@H](C)NC(=O)[C@H](CCC(N)=O)NC(=O)CNC(=O)[C@H](CCC(=O)O)NC(=O)[C@H](CC(C)C)NC(=O)[C@H](Cc1ccc(O)cc1)NC(=O)[C@H](CO)NC(=O)[C@H](CO)NC(=O)[C@@H](NC(=O)[C@H](CCC(N)=O)NC(=O)[C@H](CO)NC(=O)[C@@H](NC(=O)[C@H](Cc1ccccc1)NC(=O)[C@H](CCCCNC(C)=O)NC(=O)CNC(=O)[C@H](CCC(=O)O)NC(=O)[C@H](C)NC(=O)[C@@H](N)Cc1cnc[nH]1)[C@@H](C)O)C(C)C)C(=O)N[C@@H](Cc1ccccc1)C(=O)N[C@@H](C)C(=O)N[C@@H](Cc1c[nH]c2ccccc12)C(=O)N[C@@H](CC(C)C)C(=O)N[C@H](C(=O)N[C@@H](CCCCN)C(=O)NCC(=O)N[C@@H](CCCN=C(N)N)C(N)=O)C(C)C (H-HAEGK(Ac)FTSQVSSYLEGQAAKEIFAWLVKGR-NH2)
 |  | 210 nM | 8.4 nM | CC[C@H](C)[C@H](NC(=O)[C@H](Cc1ccccc1)NC(=O)[C@H](CCC(=O)O)NC(=O)[C@H](CCCCN)NC(=O)[C@H](C)NC(=O)[C@H](C)NC(=O)[C@H](CCC(N)=O)NC(=O)CNC(=O)[C@H](CCC(=O)O)NC(=O)[C@H](CC(C)C)NC(=O)[C@H](Cc1ccc(O)cc1)NC(=O)[C@@H]1CCC(=O)NCCCC[C@H](NC(=O)[C@@H](NC(=O)[C@H](Cc2ccccc2)NC(=O)[C@@H](NC(=O)CNC(=O)[C@H](CCC(=O)O)NC(=O)[C@H](C)NC(=O)[C@@H](N)Cc2cnc[nH]2)[C@@H](C)O)[C@@H](C)O)C(=O)N[C@@H](CC(=O)O)C(=O)N[C@@H](C(C)C)C(=O)N[C@@H](CO)C(=O)N1)C(=O)N[C@@H](C)C(=O)N[C@@H](Cc1c[nH]c2ccccc12)C(=O)N[C@@H](CC(C)C)C(=O)N[C@H](C(=O)N[C@@H](CCCCN)C(=O)NCC(=O)N[C@@H](CCCNC(=N)N)C(N)=O)C(C)C (H-HAEGTFTKDVSEYLEGQAAKEFIAWLVKGR-NH2; lactam 8-12)
 |  |  | 19 nM | CC[C@H](C)[C@H](NC(=O)[C@H](Cc1ccccc1)NC(=O)[C@H](CCC(=O)O)NC(=O)[C@H](CCCCN)NC(=O)[C@H](C)NC(=O)[C@H](C)NC(=O)[C@H](CCC(N)=O)NC(=O)CNC(=O)[C@H](CCC(=O)O)NC(=O)[C@@H]1CSSC[C@H](NC(=O)[C@H](CC(=O)O)NC(=O)[C@H](CO)NC(=O)[C@@H](NC(=O)[C@H](Cc2ccccc2)NC(=O)[C@@H](NC(=O)CNC(=O)[C@H](CCC(=O)O)NC(=O)[C@H](C)NC(=O)[C@@H](N)Cc2cnc[nH]2)[C@@H](C)O)[C@@H](C)O)C(=O)N[C@@H](CO)C(=O)N[C@@H](CO)C(=O)N[C@@H](Cc2ccc(O)cc2)C(=O)N1)C(=O)N[C@@H](C)C(=O)N[C@@H](Cc1c[nH]c2ccccc12)C(=O)N[C@@H](CC(C)C)C(=O)N[C@H](C(=O)N[C@@H](CCCCN)C(=O)NCC(=O)N[C@@H](CCCNC(=N)N)C(N)=O)C(C)C (H-HAEGTFTSDCSSYCEGQAAKEFIAWLVKGR-NH2; disulfide 10-14)
 | 1.4 nM |  |  | CC[C@H](C)[C@H](NC(=O)[C@H](CCC(=O)O)NC(=O)[C@H](CCCCN)NC(=O)[C@H](C)NC(=O)[C@H](C)NC(=O)[C@H](CCC(N)=O)NC(=O)CNC(=O)[C@H](CCC(=O)O)NC(=O)[C@H](CS)NC(=O)[C@H](Cc1ccc(O)cc1)NC(=O)[C@H](CO)NC(=O)[C@H](CO)NC(=O)[C@H](CS)NC(=O)[C@H](CC(=O)O)NC(=O)[C@H](CO)NC(=O)[C@@H](NC(=O)[C@H](Cc1ccccc1)NC(=O)[C@@H](NC(=O)CNC(=O)[C@H](CCC(=O)O)NC(=O)[C@H](C)NC(=O)[C@@H](N)Cc1cnc[nH]1)[C@@H](C)O)[C@@H](C)O)C(=O)N[C@@H](Cc1ccccc1)C(=O)N[C@@H](C)C(=O)N[C@@H](Cc1c[nH]c2ccccc12)C(=O)N[C@@H](CC(C)C)C(=O)N[C@H](C(=O)N[C@@H](CCCCN)C(=O)NCC(=O)N[C@@H](CCCNC(=N)N)C(N)=O)C(C)C (H-HAEGTFTSDCSSYCEGQAAKEIFAWLVKGR-NH2)
 | 0.0033 nM |  |  | CC[C@H](C)[C@H](NC(=O)[C@H](Cc1ccccc1)NC(=O)[C@H](CCC(=O)O)NC(=O)[C@H](CCCCN)NC(=O)[C@H](C)NC(=O)[C@H](C)NC(=O)[C@H](CCC(N)=O)NC(=O)CNC(=O)[C@H](CCC(=O)O)NC(=O)[C@@H]1CCC(=O)NCCCC[C@H](NC(=O)[C@H](CC(=O)O)NC(=O)[C@H](CO)NC(=O)[C@@H](NC(=O)[C@H](Cc2ccccc2)NC(=O)[C@@H](NC(=O)CNC(=O)[C@H](CCC(=O)O)NC(=O)[C@H](C)NC(=O)[C@@H](N)Cc2cnc[nH]2)[C@@H](C)O)[C@@H](C)O)C(=O)N[C@@H](CO)C(=O)N[C@@H](CO)C(=O)N[C@@H](Cc2ccc(O)cc2)C(=O)N1)C(=O)N[C@H]1CCCCNC(=O)CC[C@@H](C(=O)NCC(=O)N[C@@H](CCCNC(=N)N)C(N)=O)NC(=O)[C@H](C(C)C)NC(=O)[C@H](CC(C)C)NC(=O)[C@H](Cc2c[nH]c3ccccc23)NC1=O (H-HAEGTFTSDKSSYEEGQAAKEFIKWLVEGR-NH2; lactam 10-14, 24-28)

The next lines start with the compound.

SMILES | IC50 [1] | EC50 [2] | IC50 ([1]; hek293) | EC50 ([2]; hek293)
CC[C@H](C)[C@H](NC(=O)[C@H](CCC(=O)O)NC(=O)[C@H](CCCCN)NC(=O)[C@H](C)NC(=O)[C@H](C)NC(=O)[C@H](CCC(N)=O)NC(=O)CNC(=O)[C@H](CCC(=O)O)NC(=O)[C@H](CCC(N)=O)NC(=O)[C@H](Cc1ccc(O)cc1)NC(=O)[C@H](CO)NC(=O)[C@H](CO)NC(=O)[C@H](CCCCNC(C)=O)NC(=O)[C@H](CC(=O)O)NC(=O)[C@H](CO)NC(=O)[C@@H](NC(=O)[C@H](Cc1ccccc1)NC(=O)[C@@H](NC(=O)CNC(=O)[C@H](CCC(=O)O)NC(=O)[C@H](C)NC(=O)[C@@H](N)Cc1cnc[nH]1)[C@@H](C)O)[C@@H](C)O)C(=O)N[C@@H](Cc1ccccc1)C(=O)N[C@@H](C)C(=O)N[C@@H](Cc1c[nH]c2ccccc12)C(=O)N[C@@H](CC(C)C)C(=O)N[C@H](C(=O)N[C@@H](CCCCN)C(=O)NCC(=O)N[C@@H](CCCN=C(N)N)C(N)=O)C(C)C | 6.6 nM | 0.012 nM |  | 
CC[C@H](C)[C@H](NC(=O)[C@H](Cc1ccccc1)NC(=O)[C@H](CCC(=O)O)NC(=O)[C@H](CCCCN)NC(=O)[C@H](C)NC(=O)[C@H](C)NC(=O)[C@H](CCC(N)=O)NC(=O)CNC(=O)[C@H](CCC(=O)O)NC(=O)[C@H](CC(C)C)NC(=O)[C@H](Cc1ccc(O)cc1)NC(=O)[C@H](CO)NC(=O)[C@H](CO)NC(=O)[C@@H](NC(=O)[C@@H]1CCC(=O)NCCCC[C@H](NC(=O)CNC(=O)[C@H](CCC(=O)O)NC(=O)[C@H](C)NC(=O)[C@@H](N)Cc2cnc[nH]2)C(=O)N[C@@H](Cc2ccccc2)C(=O)N[C@@H]([C@@H](C)O)C(=O)N[C@@H](CO)C(=O)N1)C(C)C)C(=O)N[C@@H](C)C(=O)N[C@@H](Cc1c[nH]c2ccccc12)C(=O)N[C@@H](CC(C)C)C(=O)N[C@H](C(=O)N[C@@H](CCCCN)C(=O)NCC(=O)N[C@@H](CCCNC(=N)N)C(N)=O)C(C)C (H-HAEGKFTSEVSSYLEGQAAKEFIAWLVKGR-NH2; lactam 5-9) |  |  | 110 nM | 0.38 nM
CC[C@H](C)[C@H](NC(=O)[C@H](CCC(=O)O)NC(=O)[C@H](CCCCN)NC(=O)[C@H](C)NC(=O)[C@H](C)NC(=O)[C@H](CCC(N)=O)NC(=O)CNC(=O)[C@H](CCC(=O)O)NC(=O)[C@H](CC(C)C)NC(=O)[C@H](Cc1ccc(O)cc1)NC(=O)[C@H](CCC(N)=O)NC(=O)[C@H](CO)NC(=O)[C@@H](NC(=O)[C@H](CC(=O)O)NC(=O)[C@H](CCCCNC(C)=O)NC(=O)[C@@H](NC(=O)[C@H](Cc1ccccc1)NC(=O)[C@@H](NC(=O)CNC(=O)[C@H](CCC(=O)O)NC(=O)[C@H](C)NC(=O)[C@@H](N)Cc1cnc[nH]1)[C@@H](C)O)[C@@H](C)O)C(C)C)C(=O)N[C@@H](Cc1ccccc1)C(=O)N[C@@H](C)C(=O)N[C@@H](Cc1c[nH]c2ccccc12)C(=O)N[C@@H](CC(C)C)C(=O)N[C@H](C(=O)N[C@@H](CCCCN)C(=O)NCC(=O)N[C@@H](CCCN=C(N)N)C(N)=O)C(C)C (H-HAEGTFTK(Ac)DVSQYLEGQAAKEIFAWLVKGR-NH2) | 230 nM | 16 nM |  | 
CC[C@H](C)[C@H](NC(=O)[C@H](Cc1ccccc1)NC(=O)[C@H](CCC(=O)O)NC(=O)[C@H](CCCCN)NC(=O)[C@H](C)NC(=O)[C@H](C)NC(=O)[C@H](CCC(N)=O)NC(=O)CNC(=O)[C@H](CCC(=O)O)NC(=O)[C@@H]1CCC(=O)NCCCC[C@H](NC(=O)[C@H](CC(=O)O)NC(=O)[C@H](CO)NC(=O)[C@@H](NC(=O)[C@H](Cc2ccccc2)NC(=O)[C@@H](NC(=O)CNC(=O)[C@H](CCC(=O)O)NC(=O)[C@H](C)NC(=O)[C@@H](N)Cc2cnc[nH]2)[C@@H](C)O)[C@@H](C)O)C(=O)N[C@@H](CO)C(=O)N[C@@H](CO)C(=O)N[C@@H](Cc2ccc(O)cc2)C(=O)N1)C(=O)N[C@@H](C)C(=O)N[C@@H](Cc1c[nH]c2ccccc12)C(=O)N[C@@H](CC(C)C)C(=O)N[C@H](C(=O)N[C@@H](CCCCN)C(=O)NCC(=O)N[C@@H](CCCNC(=N)N)C(N)=O)C(C)C (H-HAEGTFTSDKSSYEEGQAAKEFIAWLVKGR-NH2; lactam 10-14) | 4.5 nM | 0.0075 nM |  | 
CC[C@H](C)[C@H](NC(=O)[C@H](CCC(=O)O)NC(=O)[C@H](CCCCN)NC(=O)[C@H](C)NC(=O)[C@H](C)NC(=O)[C@H](CCC(N)=O)NC(=O)CNC(=O)[C@H](CCC(=O)O)NC(=O)[C@H](CC(C)C)NC(=O)[C@H](Cc1ccc(O)cc1)NC(=O)[C@H](CO)NC(=O)[C@H](CO)NC(=O)[C@@H](NC(=O)[C@H](CC(=O)O)NC(=O)[C@H](CO)NC(=O)[C@@H](NC(=O)[C@H](Cc1ccccc1)NC(=O)[C@@H](NC(=O)CNC(=O)[C@H](CCC(=O)O)NC(=O)[C@H](C)NC(=O)[C@@H](N)Cc1cnc[nH]1)[C@@H](C)O)[C@@H](C)O)C(C)C)C(=O)N[C@@H](Cc1ccccc1)C(=O)N[C@@H](CCCCNC(C)=O)C(=O)N[C@@H](Cc1c[nH]c2ccccc12)C(=O)N[C@@H](CC(C)C)C(=O)N[C@H](C(=O)N[C@@H](CCC(N)=O)C(=O)NCC(=O)N[C@@H](CCCN=C(N)N)C(N)=O)C(C)C (H-HAEGTFTSDVSSYLEGQAAKEIFK(Ac)WLVQGR-NH2) |  |  |  | 0.0048 nM
